Data: PMC13598332, “Selective activation of tetrodotoxin-sensitive sodium channels by AaH-II drives arrhythmogenic late Na^+ current in the heart” (Europace, 2026)
“Also recorded” adds a separate entry of the source.

Experiments:
Wistar-Han rats = assay type: in vivo, rat; details: rat, in vivo, iv
[1] = system: adult rat ventricular myocytes; assay type: cell-based
isolated rat heart = assay: Ex vivo cardiac electrophysiological recordings (Langendorff, MEA)
Protocol: Eleven-week-old Wistar-Han rats were first heparinized (heparin sodium, 0.5 U/g i.p.) and then euthanized by i.p. injection of 140 mg/kg pentobarbital (Euthasol®). Hearts were quickly excised and immersed in a cold modified Krebs-Henseleit solution (in mM): 116 NaCl, 5 KCl, 1.1 MgSO4, 7 H2O, 0.35 NaH2PO4, 27 NaHCO3, 10 glucose, and pH 7.4. The aorta was cannulated, and the hearts were perfused on a Langendorff system with warm (36.5–37.5°C) and oxygenated (95% O2/5% CO2) Krebs-Henseleit solution supplemented with 1.8 mM CaCl2, 1 mM lactate, and 0.2 mM pyruvate (control solution) at a constant flow rate of 12 mL/min. Once connected to the Langendorff perfusion system, hearts were perfused with control solution for 10 min to stabilize their activities. Electrical activity of the upper part of the right ventricle was assessed using a 64-electrode array (0.2-mm electrode diameter; 0.36-mm interelectrode distance) connected to an EMS64-USB-1002 amplifier. Single-lead ECG was acquired to monitor global cardiac electrical activity. Data were sampled at 10 kHz per channel and acquired by EMapRecord5 (Mappinglab, Oxford, UK). Data were obtained at baseline (2 min before compound perfusion) and during AaH-II* perfusion for 10 min at various concentrations. Data were analysed using EMapScope5 (Mappinglab, Oxford, UK). Activation times were determined as the point of maximal negative slope. All activation times were related to the timing of the first detected waveform and then used to draw activation maps. An average of three complexes was used for activation time and conduction velocity analyses, while interbeat interval was measured as the average of 10 consecutive intervals. The index of inhomogeneity was calculated as previously described.[23] Arrhythmias were quantified over a period of 2 min in control and after peptide perfusion.

hNav1.6 = hNav1.6 (Homo sapiens, UniProt Q9UQD0); assay type: cell-based
hNav1.6, sequence (Q9UQD0 other isoform, or with tags, fused parts or gaps): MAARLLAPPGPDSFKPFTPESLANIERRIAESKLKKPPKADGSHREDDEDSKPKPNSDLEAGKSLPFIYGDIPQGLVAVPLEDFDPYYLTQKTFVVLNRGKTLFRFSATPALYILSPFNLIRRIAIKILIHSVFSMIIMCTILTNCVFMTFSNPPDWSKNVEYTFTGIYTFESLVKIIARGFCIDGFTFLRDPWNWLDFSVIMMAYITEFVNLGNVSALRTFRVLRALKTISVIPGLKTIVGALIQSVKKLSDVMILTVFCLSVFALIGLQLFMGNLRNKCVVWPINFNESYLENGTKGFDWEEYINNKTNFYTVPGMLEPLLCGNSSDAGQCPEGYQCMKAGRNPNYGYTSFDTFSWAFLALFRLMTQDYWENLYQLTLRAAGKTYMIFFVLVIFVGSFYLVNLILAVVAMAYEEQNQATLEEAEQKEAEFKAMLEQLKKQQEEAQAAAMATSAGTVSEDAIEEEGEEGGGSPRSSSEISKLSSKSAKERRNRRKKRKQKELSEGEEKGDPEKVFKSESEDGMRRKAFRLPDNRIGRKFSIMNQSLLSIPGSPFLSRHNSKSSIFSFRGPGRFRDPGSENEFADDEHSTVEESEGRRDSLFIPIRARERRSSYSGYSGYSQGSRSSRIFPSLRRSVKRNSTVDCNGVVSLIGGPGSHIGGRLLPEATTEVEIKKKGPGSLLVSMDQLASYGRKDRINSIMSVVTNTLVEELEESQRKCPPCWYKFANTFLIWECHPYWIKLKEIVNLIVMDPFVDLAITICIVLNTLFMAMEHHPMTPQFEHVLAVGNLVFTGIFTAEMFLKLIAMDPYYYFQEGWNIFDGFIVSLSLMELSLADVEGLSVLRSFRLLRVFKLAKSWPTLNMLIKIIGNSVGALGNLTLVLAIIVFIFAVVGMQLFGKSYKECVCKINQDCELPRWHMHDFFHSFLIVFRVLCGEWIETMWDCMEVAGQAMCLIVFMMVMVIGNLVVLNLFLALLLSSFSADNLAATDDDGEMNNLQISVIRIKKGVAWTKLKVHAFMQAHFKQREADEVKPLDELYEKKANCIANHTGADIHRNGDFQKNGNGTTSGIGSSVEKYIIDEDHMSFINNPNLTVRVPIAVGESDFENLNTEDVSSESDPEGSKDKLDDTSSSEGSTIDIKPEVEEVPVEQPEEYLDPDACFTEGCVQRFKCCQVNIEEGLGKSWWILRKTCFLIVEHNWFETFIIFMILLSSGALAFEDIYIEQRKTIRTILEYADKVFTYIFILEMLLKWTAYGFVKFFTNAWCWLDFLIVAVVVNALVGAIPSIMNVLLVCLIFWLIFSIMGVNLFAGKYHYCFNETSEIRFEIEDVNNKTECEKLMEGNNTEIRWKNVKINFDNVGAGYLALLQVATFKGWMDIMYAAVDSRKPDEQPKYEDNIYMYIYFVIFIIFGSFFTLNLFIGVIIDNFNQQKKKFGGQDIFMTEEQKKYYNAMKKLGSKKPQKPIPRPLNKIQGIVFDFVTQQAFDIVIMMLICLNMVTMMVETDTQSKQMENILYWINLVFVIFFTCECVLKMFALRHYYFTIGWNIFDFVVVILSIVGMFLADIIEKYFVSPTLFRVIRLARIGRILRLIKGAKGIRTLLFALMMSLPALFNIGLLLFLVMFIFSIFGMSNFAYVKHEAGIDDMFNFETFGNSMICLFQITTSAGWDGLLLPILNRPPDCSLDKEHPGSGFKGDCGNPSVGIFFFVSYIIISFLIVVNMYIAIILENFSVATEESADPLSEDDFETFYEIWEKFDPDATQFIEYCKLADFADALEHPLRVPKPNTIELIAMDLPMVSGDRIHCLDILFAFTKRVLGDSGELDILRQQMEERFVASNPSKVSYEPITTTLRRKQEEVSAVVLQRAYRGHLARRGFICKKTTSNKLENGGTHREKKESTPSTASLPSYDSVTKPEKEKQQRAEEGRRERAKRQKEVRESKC

[2] = system: human iPS-derived cardiomyocytes; assay: Automated patch-clamp of Na+ current in human iPS-derived cardiomyocytes; assay type: cell-based
Protocol: The control hiPSC cell line (ITXi002-A; IRX5-Wt[16]; RRID:CVCL_B5QD) was generated from primary dermal fibroblasts and previously characterized.[17–19] hiPSCs were maintained at 37°C, 5% CO2, 21% O2 in StemMacs PSC-Brew XF human medium (Miltenyi Biotec, #130-127-865) on culture plates coated with 0.05 mg/mL Matrigel hESC-Qualified Matrix (Corning, #354277) in DMEM F12 (Gibco, #11320033). At 75% confluency, the cells were passaged using the Gentle Cell Dissociation Reagent (StemCell Technologies, #07174).
We generated right ventricular-like cardioids on 96-well low-attachment plates using the Schmidt et al. (2023) protocol.[20] At D15.5, cardioids were pooled, dissociated, and replated as a monolayer in MW12 plates (Falcon, #353047) coated with Matrigel (Corning, #354277) for automated patch-clamp, and as single cells in 35-mm Petri dishes (NUNC #055055) coated with Matrigel for manual patch-clamp. Immediately before patch-clamp recording, cardiomyocytes were single-cell dissociated using Accutase (Sigma, #A6964).
For human iPSC-derived cardiomyocytes recordings, cells were resuspended at 300 000 cells/mL in a solution composed of 50% culture media and 50% extracellular buffer containing (in mM) 140 NaCl, 4 KCl, 2 CaCl2, 1 MgCl2, 5 glucose, and 10 HEPES (pH 7.4, osmolarity 298 mOsm) supplemented with 5 µM nifedipine. Single-hole, low-resistance chips (3–5 MΩ) were used. The intracellular solution contained (in mM) 10 KCl, 110 KF, 10 NaCl, 1 MgCl2, 1 CaCl2, 10 Ethylene Glycol Tetra-acetic Acid (EGTA), and 10 HEPES (pH 7.2, osmolarity 280 mOsm). Currents were recorded and analysed as previously described for stable cell lines.

[3] = rat, in vivo, iv
[4] = system: adult rat ventricular cardiomyocytes; assay: Calcium imaging (SCR events) in isolated rat cardiomyocytes; assay type: cell-based
Protocol: Eleven-week-old Wistar Han rats were euthanized by intraperitoneal (i.p.) injection of a lethal dose of pentobarbital (140 mg/kg, Euthasol®). Subsequently, the hearts were quickly excised and rinsed in cold calcium-free Tyrode solution with the following composition (in mM): 118 NaCl, 4.17 KCl, 1.2 MgSO4, 1.2 KH2PO4, 21 NaHCO3, 11 glucose, and 5 taurine, at pH 7.4. The aorta was promptly cannulated, and the hearts were perfused in a retrograde fashion with warm (37–38°C) Tyrode containing 1.25 mM CaCl2 to flush the coronary arteries of blood and then with a Tyrode solution supplemented with 1 mg/mL collagenase type 2 (Worthington Biochemical Corp, Lakewood, NJ) and 0.2 U.mL^−1 protease type XIV (Sigma, Poole, UK) during 15–20 min. Once enzymatic digestion is completed, ventricles were shredded into small pieces with surgical scissors in 0.5 mM Ca^2+ Tyrode solution, filtered through a 200-µm mesh, and then resuspended in 1 mM Ca^2+ Tyrode solution for 1 h at RT. Isolated cardiomyocytes were incubated in the dark with Fura-2-AM calcium probe (2 µM in 20% v/v DMSO; Life Technologies) for 15 min. Cardiomyocytes were then loaded onto the IonOptix system (IonOptix Corporation, U.S.A.) and perfused with warm (37°C) Tyrode solution. Cardiomyocytes were stimulated at 0.5 Hz using a MyoPacer field stimulator (20 V, 7 ms) to achieve steady state. Fura-2 fluorescence (F) at 510 nm was used to measure cytoplasmic Ca^2+ concentration variation by exciting with UV light at 340 and 380 nm. Cells were paced for 1 to 2 min, ensuring stabilization of the signals, and the effects of the peptides were measured at the end of a 5 min application time. 30-s-long periods were used as the unit duration (representing 15 Ca^2+ transients) during control and after the perfusion of the compound to count the number of arrhythmogenic transients.

## NC1=N[C@H](O)[C@H]2[C@H]3O[C@]4(O)O[C@@H]([C@@H](O)[C@@]2(N1)[C@@H]4O)[C@]3(O)CO [TTX, tetrodotoxin]
Wistar-Han rats
  P wave: 16.3 ± 1.4 ms
  PR: 48.5 ± 3.3 ms
  QRS: 18.2 ± 0.7 ms
  QTc: 45.9 ± 2.2
  RR: 194.7 ± 9.3 ms
  RR interval: increases the RR interval progressively with increasing doses
  T wave area: 1.1 ± 0.1 mV/ms
  arrhythmic rats (rats / all rats): clearly non-arrhythmic
[1]
  block of AaH-II* responses: blocked
Isolated rat heart
  interbeat interval (bradycardia): small bradycardic effect
  ventricular conduction velocity / activation time: unaffected; also recorded: does not affect ventricular conduction velocity
hNav1.6
  block of AaH-II*-modified hNav1.6 currents: complete block of hNav1.6 currents
[2]
  block of AaH-II*-triggered INaL: entirely blocked; also recorded: fully blocked
[3]
  circulating plasmatic concentration: 403 ± 44 nM
[4]
  calcium transient amplitude and time to peak: reduce the amplitude and increase the time to peak of regular calcium transients moderately
  cells presenting SCR events (SCR cells / cells): does not by itself trigger the appearance of SCR events
